Assay [1] concerns the target T1, Interleukin-1 receptor-associated kinase 4 (Homo sapiens) (UniProt Q9NWZ3).
T1 sequence (whole entry): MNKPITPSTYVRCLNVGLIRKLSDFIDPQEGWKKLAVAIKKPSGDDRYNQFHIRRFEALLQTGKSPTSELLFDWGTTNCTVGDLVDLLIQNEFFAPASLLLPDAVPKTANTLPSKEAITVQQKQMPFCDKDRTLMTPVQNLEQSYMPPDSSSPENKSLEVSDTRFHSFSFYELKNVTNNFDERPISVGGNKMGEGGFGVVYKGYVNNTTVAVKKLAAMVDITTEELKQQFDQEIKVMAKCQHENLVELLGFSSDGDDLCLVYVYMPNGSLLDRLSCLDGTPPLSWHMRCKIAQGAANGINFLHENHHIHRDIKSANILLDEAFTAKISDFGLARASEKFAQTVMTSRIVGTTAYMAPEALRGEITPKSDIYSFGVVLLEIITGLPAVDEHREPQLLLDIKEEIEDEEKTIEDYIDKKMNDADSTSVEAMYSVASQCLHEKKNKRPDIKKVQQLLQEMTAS
The assay is described as follows: Inhibition of IRAK4 (unknown origin) at 0.49 uM relative to control.

Assay [2] deals with Casein kinase I isoform delta (Homo sapiens) (UniProt P48730). The experiment in a line: Inhibition of CK1-delta (unknown origin) at 0.49 uM relative to control.
In assay [3] the target is Tyrosine-protein kinase ABL1 (Homo sapiens) (UniProt P00519). The assay is described as follows: Inhibition of ABL (unknown origin) at 0.49 uM relative to control.
The target in assay [4] is Calcium/calmodulin-dependent protein kinase type 1D (Homo sapiens) (UniProt Q8IU85). The assay is described as follows: Inhibition of CamK1d (unknown origin) at 0.49 uM relative to control.
Assay [5] has as its target Mitogen-activated protein kinase kinase kinase kinase 5 (Homo sapiens) (UniProt Q9Y4K4). The assay is described as follows: Inhibition of KHS1 (unknown origin) at 0.49 uM relative to control.
Assay [6] relates to Proto-oncogene tyrosine-protein kinase receptor Ret (Homo sapiens), P07949 [V804L]. The experiment in a line: Inhibition of Ret V804L mutant (unknown origin) at 0.49 uM relative to control.
Assay [7] addresses Mitogen-activated protein kinase 12 (Homo sapiens) (UniProt P53778). The experiment in a line: Inhibition of p38-gamma (unknown origin) at 0.49 uM relative to control.
For assay [8], the target named is Serine/threonine-protein kinase Nek1 (Homo sapiens) (UniProt Q96PY6). The experiment in a line: Inhibition of NEK1 (unknown origin) at 0.49 uM relative to control.
Assay [9] addresses Tyrosine-protein kinase Fer (Homo sapiens) (UniProt P16591). The experiment in a line: Inhibition of Fer (unknown origin) at 0.49 uM relative to control.
Assay [10] concerns the target T2, MAP kinase-activated protein kinase 5 (Homo sapiens) (UniProt Q8IW41).
T2 sequence (whole entry): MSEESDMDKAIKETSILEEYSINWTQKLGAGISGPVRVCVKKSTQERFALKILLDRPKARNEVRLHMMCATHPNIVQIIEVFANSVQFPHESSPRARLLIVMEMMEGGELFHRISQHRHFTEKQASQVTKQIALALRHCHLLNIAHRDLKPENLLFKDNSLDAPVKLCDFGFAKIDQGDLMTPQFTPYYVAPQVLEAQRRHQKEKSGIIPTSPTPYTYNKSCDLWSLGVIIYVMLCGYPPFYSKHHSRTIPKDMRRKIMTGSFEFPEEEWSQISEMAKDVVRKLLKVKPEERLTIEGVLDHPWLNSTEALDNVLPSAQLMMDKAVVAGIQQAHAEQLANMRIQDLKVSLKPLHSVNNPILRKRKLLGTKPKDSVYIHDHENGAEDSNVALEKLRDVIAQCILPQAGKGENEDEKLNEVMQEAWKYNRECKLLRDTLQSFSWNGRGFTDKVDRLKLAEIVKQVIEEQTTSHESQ
The assay is described as follows: Inhibition of PRAK (unknown origin) at 0.49 uM relative to control.

Assay [11] concerns the target Insulin receptor (Homo sapiens) (UniProt P06213). The assay is described as follows: Inhibition of INSR (unknown origin) at 0.49 uM relative to control.
Assay [12] deals with cAMP-dependent protein kinase catalytic subunit PRKX (Homo sapiens) (UniProt P51817). The assay is described as follows: Inhibition of PRKX (unknown origin) at 0.49 uM relative to control.
Assay [13] has as its target Mitogen-activated protein kinase 3 (Homo sapiens) (UniProt P27361). The assay is described as follows: Inhibition of Erk1 (unknown origin) at 0.078 uM relative to control.
Assay [14] addresses Tyrosine-protein kinase receptor TYRO3 (Homo sapiens) (UniProt Q06418). The experiment in a line: Inhibition of TYRO3 (unknown origin) at 0.45 uM relative to control.
For assay [15], the target named is ALK tyrosine kinase receptor (Homo sapiens) (UniProt Q9UM73). The assay is described as follows: Inhibition of ALK (unknown origin) at 0.45 uM relative to control.
Assay [16] addresses Mitogen-activated protein kinase 11 (Homo sapiens) (UniProt Q15759). The assay is described as follows: Inhibition of p38-beta2 (unknown origin) at 0.45 uM relative to control.
The subject of assay [17] is Proto-oncogene tyrosine-protein kinase receptor Ret (Homo sapiens), P07949 [V804L]. The assay is described as follows: Inhibition of Ret V804L mutant (unknown origin) at 0.45 uM relative to control.
Assay [18] addresses Serine/threonine-protein kinase 4 (Homo sapiens) (UniProt Q13043). The experiment in a line: Inhibition of MST1 (unknown origin) at 0.45 uM relative to control.
Assay [19] concerns the target Serine/threonine-protein kinase pim-3 (Homo sapiens) (UniProt Q86V86). The experiment in a line: Inhibition of PIM3 (unknown origin) at 0.45 uM relative to control.
In assay [20] the test system is Tyrosine-protein kinase ABL1 (Homo sapiens), P00519 [Y253F]. The experiment in a line: Inhibition of ABL1 Y253F mutant (unknown origin) at 0.45 uM relative to control.
For assay [21], the target named is Serine/threonine-protein kinase MARK2 (Homo sapiens) (UniProt Q7KZI7). The experiment in a line: Inhibition of MARK2 (unknown origin) at 0.45 uM relative to control.
The target in assay [22] is Testis-specific serine/threonine-protein kinase 2 (Homo sapiens) (UniProt Q96PF2). The assay is described as follows: Inhibition of TSSK2 (unknown origin) at 0.45 uM relative to control.
For assay [23], the target named is CDK6/cyclin D3 (Homo sapiens) (UniProt P30281+Q00534). The experiment in a line: Inhibition of CDK6/CyclinD3 (unknown origin) at 0.45 uM relative to control. It counts as protein-complex assay.
In assay [24] the target is Serine/threonine-protein kinase PAK 5 (Homo sapiens) (UniProt Q9P286). The assay is described as follows: Inhibition of PAK5 (unknown origin) at 0.45 uM relative to control.
The target in assay [25] is Tyrosine-protein kinase SYK (Homo sapiens) (UniProt P43405). The assay is described as follows: Inhibition of SYK (unknown origin) at 0.45 uM relative to control.
Assay [26] concerns the target Hepatocyte growth factor receptor (Homo sapiens) (UniProt P08581). The assay is described as follows: Inhibition of MET (unknown origin) at 0.45 uM relative to control.
The target in assay [27] is PAS domain-containing serine/threonine-protein kinase (Homo sapiens) (UniProt Q96RG2). The experiment in a line: Inhibition of PASK (unknown origin) at 0.45 uM relative to control.
For assay [28], the target named is Interleukin-1 receptor-associated kinase 1 (Homo sapiens) (UniProt P51617). The experiment in a line: Inhibition of IRAK1 (unknown origin) at 0.45 uM relative to control.

Each structure is given as a SMILES string.

What is called inhibition is the relative decrease from the control value, in per cent.

Proto-oncogene tyrosine-protein kinase receptor Ret (Homo sapiens), P07949 [V804L], sequence (P07949 whole entry V804L): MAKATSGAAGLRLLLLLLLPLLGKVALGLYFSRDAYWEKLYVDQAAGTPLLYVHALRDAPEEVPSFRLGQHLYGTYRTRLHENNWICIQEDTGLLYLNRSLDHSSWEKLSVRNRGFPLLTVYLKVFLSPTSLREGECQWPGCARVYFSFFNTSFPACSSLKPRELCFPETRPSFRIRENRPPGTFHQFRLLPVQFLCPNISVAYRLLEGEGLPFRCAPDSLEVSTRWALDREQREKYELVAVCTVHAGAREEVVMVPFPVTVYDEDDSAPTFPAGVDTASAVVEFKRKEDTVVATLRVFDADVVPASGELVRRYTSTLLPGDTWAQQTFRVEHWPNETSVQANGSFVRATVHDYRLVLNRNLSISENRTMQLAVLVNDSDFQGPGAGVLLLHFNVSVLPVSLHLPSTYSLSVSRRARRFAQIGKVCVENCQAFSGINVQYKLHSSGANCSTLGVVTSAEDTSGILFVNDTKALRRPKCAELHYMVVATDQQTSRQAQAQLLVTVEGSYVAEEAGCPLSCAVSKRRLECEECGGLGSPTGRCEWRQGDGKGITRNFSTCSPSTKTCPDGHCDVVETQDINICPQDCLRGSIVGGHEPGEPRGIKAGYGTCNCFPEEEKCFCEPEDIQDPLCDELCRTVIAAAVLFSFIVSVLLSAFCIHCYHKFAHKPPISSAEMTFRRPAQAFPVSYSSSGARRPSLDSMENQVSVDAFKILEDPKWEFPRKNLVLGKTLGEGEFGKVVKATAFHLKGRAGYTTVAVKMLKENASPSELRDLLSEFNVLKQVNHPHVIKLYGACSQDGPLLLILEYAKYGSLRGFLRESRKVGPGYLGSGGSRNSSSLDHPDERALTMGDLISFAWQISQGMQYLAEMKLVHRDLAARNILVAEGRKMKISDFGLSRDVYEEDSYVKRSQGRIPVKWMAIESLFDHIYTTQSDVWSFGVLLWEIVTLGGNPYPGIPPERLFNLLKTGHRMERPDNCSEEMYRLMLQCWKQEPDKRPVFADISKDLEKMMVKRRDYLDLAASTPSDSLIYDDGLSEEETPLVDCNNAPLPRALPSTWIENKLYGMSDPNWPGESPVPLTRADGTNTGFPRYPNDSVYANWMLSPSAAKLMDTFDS
Interleukin-1 receptor-associated kinase 1 (Homo sapiens), sequence (P51617 whole entry, looked up): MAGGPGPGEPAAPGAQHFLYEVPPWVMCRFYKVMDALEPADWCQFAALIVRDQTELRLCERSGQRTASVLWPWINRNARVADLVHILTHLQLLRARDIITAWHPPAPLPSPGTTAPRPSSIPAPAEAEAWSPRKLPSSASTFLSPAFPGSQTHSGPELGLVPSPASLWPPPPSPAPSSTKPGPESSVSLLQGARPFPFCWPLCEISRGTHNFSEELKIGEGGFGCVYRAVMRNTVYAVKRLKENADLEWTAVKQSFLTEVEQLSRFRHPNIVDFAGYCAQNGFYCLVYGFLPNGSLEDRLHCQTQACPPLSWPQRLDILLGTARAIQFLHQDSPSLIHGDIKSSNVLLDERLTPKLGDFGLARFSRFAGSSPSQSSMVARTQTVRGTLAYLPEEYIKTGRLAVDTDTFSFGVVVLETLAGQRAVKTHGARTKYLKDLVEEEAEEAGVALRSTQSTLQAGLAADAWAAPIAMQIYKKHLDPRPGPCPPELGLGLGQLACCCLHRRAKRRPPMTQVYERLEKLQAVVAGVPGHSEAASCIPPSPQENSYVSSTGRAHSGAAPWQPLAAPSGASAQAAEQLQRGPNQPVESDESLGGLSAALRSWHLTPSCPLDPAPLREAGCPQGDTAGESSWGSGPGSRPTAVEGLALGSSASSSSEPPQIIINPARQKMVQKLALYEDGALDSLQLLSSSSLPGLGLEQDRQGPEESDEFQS
Serine/threonine-protein kinase MARK2 (Homo sapiens), sequence (Q7KZI7 whole entry): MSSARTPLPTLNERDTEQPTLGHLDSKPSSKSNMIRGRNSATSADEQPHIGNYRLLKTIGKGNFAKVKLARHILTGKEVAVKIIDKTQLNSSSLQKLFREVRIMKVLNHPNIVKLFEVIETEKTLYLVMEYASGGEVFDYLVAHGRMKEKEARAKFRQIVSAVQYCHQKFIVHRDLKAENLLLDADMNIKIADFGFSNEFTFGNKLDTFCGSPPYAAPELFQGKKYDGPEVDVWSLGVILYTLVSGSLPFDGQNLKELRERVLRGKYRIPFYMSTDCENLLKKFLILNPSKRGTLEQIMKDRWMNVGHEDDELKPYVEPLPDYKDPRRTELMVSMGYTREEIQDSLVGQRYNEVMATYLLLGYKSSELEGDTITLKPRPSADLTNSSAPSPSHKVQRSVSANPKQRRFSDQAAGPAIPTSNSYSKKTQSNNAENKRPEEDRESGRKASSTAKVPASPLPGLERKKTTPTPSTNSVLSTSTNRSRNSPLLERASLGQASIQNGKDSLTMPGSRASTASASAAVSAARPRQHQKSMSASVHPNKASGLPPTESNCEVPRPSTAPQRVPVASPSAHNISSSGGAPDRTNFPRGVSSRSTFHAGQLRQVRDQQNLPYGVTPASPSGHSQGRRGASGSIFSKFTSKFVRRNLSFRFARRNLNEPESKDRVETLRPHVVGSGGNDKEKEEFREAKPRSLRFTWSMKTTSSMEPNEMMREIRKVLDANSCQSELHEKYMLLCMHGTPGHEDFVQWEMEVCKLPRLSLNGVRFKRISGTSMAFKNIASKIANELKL
Tyrosine-protein kinase Fer (Homo sapiens), sequence (P16591 whole entry, looked up): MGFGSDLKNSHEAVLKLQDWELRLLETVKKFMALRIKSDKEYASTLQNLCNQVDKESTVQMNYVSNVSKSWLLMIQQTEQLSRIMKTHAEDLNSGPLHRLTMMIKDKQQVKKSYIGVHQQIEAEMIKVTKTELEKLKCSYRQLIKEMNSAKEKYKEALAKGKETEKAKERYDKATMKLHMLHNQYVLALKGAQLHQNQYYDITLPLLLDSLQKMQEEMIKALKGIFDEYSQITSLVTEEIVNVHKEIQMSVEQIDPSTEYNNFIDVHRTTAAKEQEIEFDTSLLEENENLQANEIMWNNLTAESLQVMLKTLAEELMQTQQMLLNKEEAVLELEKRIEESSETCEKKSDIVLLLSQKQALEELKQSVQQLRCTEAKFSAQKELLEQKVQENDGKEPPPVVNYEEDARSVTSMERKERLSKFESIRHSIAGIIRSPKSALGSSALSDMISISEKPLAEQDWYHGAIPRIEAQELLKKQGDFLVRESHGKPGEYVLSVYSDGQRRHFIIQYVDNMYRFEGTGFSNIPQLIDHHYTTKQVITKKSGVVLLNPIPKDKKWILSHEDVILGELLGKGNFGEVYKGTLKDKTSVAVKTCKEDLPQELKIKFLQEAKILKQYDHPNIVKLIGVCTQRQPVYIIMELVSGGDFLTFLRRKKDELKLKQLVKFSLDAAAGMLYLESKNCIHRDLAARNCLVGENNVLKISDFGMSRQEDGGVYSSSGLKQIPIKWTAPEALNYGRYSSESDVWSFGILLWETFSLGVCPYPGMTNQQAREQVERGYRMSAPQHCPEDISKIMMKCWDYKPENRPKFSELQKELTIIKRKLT
Serine/threonine-protein kinase 4 (Homo sapiens), sequence (Q13043 whole entry): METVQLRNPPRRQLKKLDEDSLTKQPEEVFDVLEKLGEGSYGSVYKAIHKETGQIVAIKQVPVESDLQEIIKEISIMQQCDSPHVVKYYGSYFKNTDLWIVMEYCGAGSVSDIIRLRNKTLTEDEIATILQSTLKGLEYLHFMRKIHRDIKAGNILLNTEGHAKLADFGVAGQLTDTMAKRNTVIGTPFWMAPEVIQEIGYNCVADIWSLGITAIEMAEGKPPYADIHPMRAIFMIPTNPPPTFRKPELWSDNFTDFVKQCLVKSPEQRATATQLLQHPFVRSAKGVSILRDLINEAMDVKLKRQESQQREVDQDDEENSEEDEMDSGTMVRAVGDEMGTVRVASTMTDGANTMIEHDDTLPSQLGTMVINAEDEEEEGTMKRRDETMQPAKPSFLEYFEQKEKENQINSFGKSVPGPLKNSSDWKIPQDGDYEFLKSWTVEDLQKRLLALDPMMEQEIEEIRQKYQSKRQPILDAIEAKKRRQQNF
Tyrosine-protein kinase receptor TYRO3 (Homo sapiens), sequence (Q06418 whole entry): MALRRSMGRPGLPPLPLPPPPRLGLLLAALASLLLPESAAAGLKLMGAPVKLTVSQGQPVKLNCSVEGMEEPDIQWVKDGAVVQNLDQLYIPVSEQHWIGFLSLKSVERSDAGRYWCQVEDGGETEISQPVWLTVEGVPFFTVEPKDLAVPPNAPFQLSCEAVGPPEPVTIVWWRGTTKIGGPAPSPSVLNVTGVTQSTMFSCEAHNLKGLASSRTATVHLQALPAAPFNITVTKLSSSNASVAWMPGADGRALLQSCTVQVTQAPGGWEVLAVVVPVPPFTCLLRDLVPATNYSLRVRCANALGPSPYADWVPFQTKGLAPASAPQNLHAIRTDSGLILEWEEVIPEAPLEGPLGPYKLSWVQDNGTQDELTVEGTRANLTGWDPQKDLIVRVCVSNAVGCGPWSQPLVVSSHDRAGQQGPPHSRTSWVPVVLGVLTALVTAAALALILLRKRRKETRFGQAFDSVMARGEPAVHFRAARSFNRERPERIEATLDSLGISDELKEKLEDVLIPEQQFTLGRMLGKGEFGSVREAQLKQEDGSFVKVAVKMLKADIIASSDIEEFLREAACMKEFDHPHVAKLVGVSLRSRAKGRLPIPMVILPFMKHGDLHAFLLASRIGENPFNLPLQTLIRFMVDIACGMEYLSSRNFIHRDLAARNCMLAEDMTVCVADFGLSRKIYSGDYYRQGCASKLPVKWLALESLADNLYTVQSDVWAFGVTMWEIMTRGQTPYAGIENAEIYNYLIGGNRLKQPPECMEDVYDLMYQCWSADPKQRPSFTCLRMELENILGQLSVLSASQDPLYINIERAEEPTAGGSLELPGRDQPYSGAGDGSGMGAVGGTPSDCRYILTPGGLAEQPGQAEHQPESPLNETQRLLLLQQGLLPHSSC

For the compound `Cc1[nH]nc(C2CC2)c1-c1ccc2c(NC(=O)C3CC3)noc2c1`, the inhibition was 2% in [1]; 6.7% in assay [2]; 38.3% in assay [3]; -4.3% in assay [4]; 6.3% in assay [5]; -0.7% in assay [6]. In addition, the inhibition in assay [7] was -2.3%; in assay [8], 0.3%; in assay [9] it was 0.3%; in assay [10] it was -0.3%; in assay [11], 2.3%; in [12] it was -1.7%.
Consider `COC(=O)Nc1noc2cc(-c3c(-c4ccccn4)n[nH]c3C)ccc12`, for which, in [13], the inhibition was 8%.
With `Cc1n[nH]c(C)c1-c1ccc2c(NC(=O)c3ccc(N4CCN(C)CC4)cc3)n[nH]c2c1`, the inhibition in assay [14] was 13.3%; in assay [15], 26%; in [16], -1.3%; in [17], 21.3%; in [18], 33.3%; in [19], -2.3%. For the same compound, the inhibition in assay [20] is 76%; in assay [21] it was 35%; in [22], -3%; in assay [23], 5.3%; in assay [24] it was 5.3%; in assay [25], 2.7%. In addition, the values for the inhibition in assay [26], in assay [27] and in assay [28] were 5.7%, -2% and 4.3%, respectively.

(Values after ChEMBL document CHEMBL4052759, “Discovery of DS79182026: A potent orally active hepcidin production inhibitor” (Bioorg Med Chem Lett, 2017).)
